# Experimental data reported in patent publication US20260248869A1, “SILICONE GEL COMPOSITION OF WALNUT EXTRACT” (priority 2022, published 2026).
# Assay: Confocal optical microscopy of Juglone penetration depth in human skin
# Format: in vitro ADME
# Settings: epidermal region; signal disappeared at greater depths
# Description: The penetration in human skin was also studied by confocal microscopy, using the fluorescence of the Juglone molecule exciting it with light of 488 nm and observing its fluorescence in a window from 510 to 702 nm. For this penetration study, a Leica microscope, model SPE Confocal Microscope was used, with a 10×lens. The location of the Juglone molecules in depth was established with this instrument (in perpendicular direction to the skin surface). The accumulation of Juglone at different depth levels causes the appearance of areas with different fluorescence intensity and allows to observe directly where the molecule is retained. It must be noted that white Caucasian skins were chosen to prevent interferences of basal fluorescence and thus clearly observe the fluorescence of the Juglone molecule.
# The transdermal permeation study was performed according to the “Guidance document for the conduct of skin absorption studies”. OECD series on testing assessment. Number 28. ENV/JM/MONO (2004) 2.5 Mar. 2004. Using Franz type cells, of 1.80 cm in diameter, and a surface of 2.54 cm^2. The permeation membrane used was human skin of the abdominal area (0.400 mm thick) from repair surgery and previously treated. This thickness covers the epidermis and dermis above the vascular plexus. […]
smiles,measurement,value
"O=C1C=CC(=O)c2c(O)cccc21 [Juglone, 5-hydroxy-1,4-naphthalenedione]",Depth at which the specific fluorescence of Juglone is maintained,less than 120 μm
